Test results reported in PubChem BioAssay AID248 (DTP/NCI, 2004).
Where “and” joins values, the source holds several entries; their conditions need not be identical. Equal values may be shown once. Inconclusive results and toxic doses are left out. Cut-off read from the data, not from the text of the source: active = T/C of 150% or more; inactive = T/C below 125%.

Test system: L1210 leukemia ip in BDF1 mice, survival T/C
Assay: NCI In Vivo Anticancer Drug Screen. Data for tumor model L1210 Leukemia (intraperitoneal) in B6D2F1 (BDF1) mice
Conditions: endpoint: mean survival time, higher = longer survival
Outline: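 Tumor was transplanted into mice, which were then dosed with test compound or vehicle alone. Survival was recorded for each group, and the treated figure was expressed relative to the control figure.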

[1] = dose: 50.0 mg/kg/injection, schedule: Q04DX002 (ip), vehicle: saline
[2] = dose: 100.0 mg/kg/injection, schedule: Q04DX002 (ip), vehicle: saline
[3] = dose: 200.0 mg/kg/injection, schedule: Q04DX002 (ip), vehicle: saline
[4] = dose: 100.0 mg/kg/injection, schedule: Q04DX003 (ip), vehicle: saline
[5] = dose: 200.0 mg/kg/injection, schedule: Q04DX003 (ip), vehicle: saline
[6] = dose: 75.0 mg/kg/injection, schedule: Q01DX001 (ip), vehicle: saline
[7] = dose: 50.0 mg/kg/injection, schedule: Q01DX009 (ip), vehicle: saline
[8] = dose: 100.0 mg/kg/injection, schedule: Q01DX009 (ip), vehicle: saline
[9] = dose: 200.0 mg/kg/injection, schedule: Q01DX009 (ip), vehicle: saline
[10] = dose: 12.5 mg/kg/injection, schedule: Q01DX009 (ip), vehicle: saline
[11] = dose: 25.0 mg/kg/injection, schedule: Q01DX009 (ip), vehicle: saline
[12] = dose: 100.0 mg/kg/injection, schedule: Q01DX001 (ip), vehicle: Klucel (hydroxypropylcellulose) (HPC)
[13] = dose: 100.0 mg/kg/injection, schedule: Q01DX009 (ip), vehicle: Klucel (hydroxypropylcellulose) (HPC)
[14] = dose: 100.0 mg/kg/injection, schedule: Q04DX003 (ip), vehicle: Klucel (hydroxypropylcellulose) (HPC)
[15] = dose: 200.0 mg/kg/injection, schedule: Q01DX001 (ip), vehicle: Klucel (hydroxypropylcellulose) (HPC)
[16] = dose: 200.0 mg/kg/injection, schedule: Q01DX009 (ip), vehicle: Klucel (hydroxypropylcellulose) (HPC)
[17] = dose: 200.0 mg/kg/injection, schedule: Q04DX003 (ip), vehicle: Klucel (hydroxypropylcellulose) (HPC)
[18] = dose: 400.0 mg/kg/injection, schedule: Q01DX001 (ip), vehicle: Klucel (hydroxypropylcellulose) (HPC)
[19] = dose: 400.0 mg/kg/injection, schedule: Q04DX003 (ip), vehicle: Klucel (hydroxypropylcellulose) (HPC)
[20] = dose: 100.0 mg/kg/injection, schedule: Q01DX001 (ip), vehicle: saline
[21] = dose: 200.0 mg/kg/injection, schedule: Q01DX001 (ip), vehicle: saline
[22] = dose: 400.0 mg/kg/injection, schedule: Q01DX001 (ip), vehicle: saline

Measured: T/C

CC(=O)Nc1cc(F)cc(F)c1Br
inactive: dose: 100.0 mg/kg/injection, schedule: Q01DX001 (ip), vehicle: carboxymethylcellulose (CMC) 105 % of control | dose: 200.0 mg/kg/injection, schedule: Q01DX001 (ip), vehicle: carboxymethylcellulose (CMC) 102 % of control | dose: 400.0 mg/kg/injection, schedule: Q01DX001 (ip), vehicle: carboxymethylcellulose (CMC) 112 % of control

Cc1cc(C)nc(N(C)CC(=O)O)n1
inactive: [1] 100 % of control | [2] 95 % of control | [3] 103 % of control

CNC(=O)CO
inactive: [4] 98 % of control | [5] 103 % of control | dose: 400.0 mg/kg/injection, schedule: Q04DX003 (ip), vehicle: saline 92 % of control

CC(C)/C(=N\[N+](C)(C)C)c1ccccc1
inactive: dose: 18.8 mg/kg/injection, schedule: Q04DX003 (ip), vehicle: saline 97 % of control | dose: 37.5 mg/kg/injection, schedule: Q04DX003 (ip), vehicle: saline 100 % of control | [6] 103 % of control | dose: 75.0 mg/kg/injection, schedule: Q04DX003 (ip), vehicle: saline 100 % of control

O=C1C=CC(=O)N1c1ccc(Cc2ccc(N3C(=O)C=CC3=O)cc2)cc1
inactive: dose: 26.6 mg/kg/injection, schedule: Q01DX Z (ip), vehicle: methylcellulose (MC) 90 % of control | dose: 40.0 mg/kg/injection, schedule: Q01DX Z (ip), vehicle: methylcellulose (MC) 95 % of control

CC1(C)C(=O)C=C(c2ccccc2)C1(O)c1ccccc1 (stereo unspecified)
inactive: dose: 100.0 mg/kg/injection, schedule: Q04DX003 (ip), vehicle: saline with Tween-80 99 % of control | dose: 200.0 mg/kg/injection, schedule: Q04DX003 (ip), vehicle: saline with Tween-80 96 % of control | dose: 400.0 mg/kg/injection, schedule: Q04DX003 (ip), vehicle: saline with Tween-80 96 % of control

CCN(CC)CCN(C)C(=O)C(=O)c1ccccc1
inactive: [6] 98 % of control | dose: 150.0 mg/kg/injection, schedule: Q01DX001 (ip), vehicle: saline 101 % of control

C[N+]1(C)C2CC(=O)CC1C1CC12 (stereo unspecified) (tested in a mixture with another compound)
inactive: [7] 106 % of control | [8] 108 % of control | [4] 94 % of control | [9] 90 % of control | [5] 100 % of control

COC(=O)/C=C/C(=O)NC(N)=O
inactive: dose: 6.25 mg/kg/injection, schedule: Q01DX009 (ip), vehicle: saline 93 % of control | [10] 98 % of control | [11] 101 % of control

CS(=O)(=O)c1ccc(Nn2c(N)nn(-c3ccc(S(C)(=O)=O)cc3)c2=N)cc1
inactive: [7] 93 % of control and 95 % of control and 96 % of control | [8] 95 % of control and 86 % of control | [9] 97 % of control and 107 % of control and 92 % of control

CC(C)c1cccc(C(C)C)c1OC(=O)Nc1ccccc1
inactive: [12] 101 % of control | [13] 97 % of control | dose: 100.0 mg/kg/injection, schedule: Q04DX002 (ip), vehicle: Klucel (hydroxypropylcellulose) (HPC) 95 % of control and 102 % of control | [14] 116 % of control | [15] 88 % of control | [16] 98 % of control and 87 % of control | dose: 200.0 mg/kg/injection, schedule: Q04DX002 (ip), vehicle: Klucel (hydroxypropylcellulose) (HPC) 97 % of control and 108 % of control | [17] 100 % of control | [18] 87 % of control | dose: 400.0 mg/kg/injection, schedule: Q01DX009 (ip), vehicle: Klucel (hydroxypropylcellulose) (HPC) 103 % of control and 113 % of control | dose: 400.0 mg/kg/injection, schedule: Q04DX002 (ip), vehicle: Klucel (hydroxypropylcellulose) (HPC) 102 % of control and 90 % of control | [19] 108 % of control

COCc1nnc2ncnc(OC)c2n1
inactive: [11] 106 % of control | dose: 25.0 mg/kg/injection, schedule: Q04DX003 (ip), vehicle: saline 100 % of control | [7] 93 % of control | dose: 50.0 mg/kg/injection, schedule: Q04DX003 (ip), vehicle: saline 102 % of control | [20] 98 % of control | [8] 88 % of control | [4] 98 % of control

C=CO
inactive: [20] 103 % of control | [21] 95 % of control | [22] 89 % of control

CCNc1nc(NCC)c(Cl)c(C(Cl)(Cl)Cl)n1
inactive: dose: 50.0 mg/kg/injection, schedule: Q01DX009 (ip), vehicle: Klucel (hydroxypropylcellulose) (HPC) 102 % of control | [13] 102 % of control | [16] 105 % of control

NC(=O)Cc1ccccc1N
inactive: [12] 98 % of control | [15] 114 % of control | [18] 98 % of control

CCCCCCCCCCCCCCCCNS(=O)(=O)c1ccc(N2CCOCC2)c(N)c1
inactive: [14] 93 % of control | [17] 98 % of control | [19] 94 % of control

O=C(O)CSCCSCC(=O)O
inactive: dose: 12.5 mg/kg/injection, schedule: Q04DX002 (ip), vehicle: carboxymethylcellulose (CMC) 95 % of control | dose: 25.0 mg/kg/injection, schedule: Q04DX002 (ip), vehicle: carboxymethylcellulose (CMC) 97 % of control | dose: 50.0 mg/kg/injection, schedule: Q04DX002 (ip), vehicle: carboxymethylcellulose (CMC) 98 % of control | dose: 100.0 mg/kg/injection, schedule: Q01DX009 (ip), vehicle: saline with Tween-80 104 % of control | dose: 200.0 mg/kg/injection, schedule: Q01DX009 (ip), vehicle: saline with Tween-80 94 % of control and 91 % of control

CN1C(C(=O)c2ccccc2)C1C(=O)c1ccccc1 (stereo unspecified)
inactive: dose: 75.0 mg/kg/injection, schedule: Q04DX003 (ip), vehicle: carboxymethylcellulose (CMC) 112 % of control | dose: 150.0 mg/kg/injection, schedule: Q04DX003 (ip), vehicle: carboxymethylcellulose (CMC) 102 % of control | dose: 300.0 mg/kg/injection, schedule: Q04DX003 (ip), vehicle: carboxymethylcellulose (CMC) 102 % of control

O=C(Cn1ccc(=O)[nH]c1=O)Nc1ccc(C(=O)O)cc1
inactive: [20] 96 % of control | [21] 111 % of control | [22] 96 % of control

COc1cc2ccc3ccncc3c2cc1OC
inactive: [10] 104 % of control | [11] 106 % of control and 115 % of control | [7] 97 % of control and 111 % of control | [4] 86 % of control

C/C=C/C=C/COC(=O)C(C)(C)C
inactive: [1] 103 % of control | [2] 95 % of control and 96 % of control | [3] 98 % of control | dose: 400.0 mg/kg/injection, schedule: Q04DX002 (ip), vehicle: saline 96 % of control and 107 % of control
